Source: patent publication US6800101B2, “Deactivatable biocides for hydrocarbonaceous products” (priority 2001, dated 2004)

Assays:
bacteria = type: cell-based
in vivo = type: in vivo; details: Cyprinodon variegatus (sheepshead minnow), in vivo
Description: (§1) […]. EPA/600/4-90/027F Washington D.C. section 2.02, paragraph 1.) conducted at Pacific Eco-Risk Laboratories, Martinez, Calif.
(§2) LOEC is the Lowest Observable Effect Concentration and is defined as the minimum concentration where mortality is observed for the test species. […] LC-50, the concentration that will cause mortality of 50% of the organisms tested within 96 h, is a calculated value based on all observations.
(§3) The solutions were mixed for 48 hours prior to the start of the bioassays. The solutions were diluted to perform bioassays at starting glutaraldehyde concentrations of 100, 50, 37.5, 25, and 10, 5 mg/L

[1] = test system: Larval Sheepshead Minnow (Cyprinodon variegatus); assay: in vivo; type: in vivo; details: for LOEC / NOEC: Cyprinodon variegatus (sheepshead minnow), in vivo, 96 h
Description: as §1, §2, §3

alkane degrading culture = assay: Evaluation of biocides: growth inhibition on FT diesel and ALAD diesel; type: cell-based; on microbial growth: key: −: No Growth; +: Growth (White Unless Otherwise Indicated)
Description: Growth Media: A standard minimal media containing only inorganic nutrients required for bacterial growth was used. The medium used to supply inorganic micronutrients to the growing culture of alkane degrading organisms consisted of 0.1 g/L MgSO4.7H2O, 0.5 g/L NaNO3, 0.02 millimolar FeSO4 and 0.63 g/L K2HPO4 and 0.19 g/L KH2PO4 to achieve a pH of 7 to 7.3.
Test Conditions: 90 ml of growth media and 10 ml of either FT diesel or low sulfur (ALAD) diesel was added to 250 ml flasks. […] In addition to 2 alkynes, glutaraldehyde (glutaric dialdehyde 50%), was tested. The following summarizes the test conditions:
Sterile control (media boiled prior to adding FT or ALAD, not inoculated)
Inculated control (no inhibitor)
100 ppm inhibitor (on a total test volume basis or 1000 ppm in diesel)
1% inhibitor (on a total test volume basis or 10% in diesel).
After inoculation, the flasks were place on a shaker-table (135 rpm) at room temperature and observed daily.

bacterial inoculum = assay: Neutralization of biocides with other nitrogen compounds; type: cell-based; details: for microbial growth: n-C16; for neutralizing 10 ppm of gluteraldehyde: two moles per mole gluteraldehyde
Description: The different nitrogen-containing compounds evaluated include the following:

microbial growth = assay: Evaluation of lower amounts of water; type: cell-based; details: 100 ppm; 90% Fischer-Tropsch diesel fuel, 10% minimal media; after 16 days
Description: In this example, an experiment was done using a lower amount of water. 90% Fischer-Tropsch diesel fuel was mixed with 10% minimal media. One flask was used as a control and the other contained 100 ppm […].

[2] = LA (ALAD) Diesel + 1 Wt %, Day 0
[3] = LA (ALAD) Diesel + 1 Wt %, Day 1
[4] = LA (ALAD) Diesel + 1 Wt %, Day 5
[5] = LA (ALAD) Diesel + 1 Wt %, Day 7
[6] = LA (ALAD) Diesel + 1 Wt %, Day 8
[7] = LA (ALAD) Diesel + 1 Wt %, Day 19
[8] = LA (ALAD) Diesel + 100 ppm, Day 0
[9] = LA (ALAD) Diesel + 100 ppm, Day 1
[10] = LA (ALAD) Diesel + 100 ppm, Day 5
[11] = LA (ALAD) Diesel + 100 ppm, Day 7
[12] = LA (ALAD) Diesel + 100 ppm, Day 8
[13] = LA (ALAD) Diesel + 100 ppm, Day 19
[14] = 10 ppm gluteraldehyde + two moles nitrogen compound per mole, day 0
[15] = 10 ppm gluteraldehyde + two moles nitrogen compound per mole, day 1
[16] = 10 ppm gluteraldehyde + two moles nitrogen compound per mole, day 2
[17] = 10 ppm gluteraldehyde + two moles nitrogen compound per mole, day 6
[18] = 10 ppm gluteraldehyde + two moles nitrogen compound per mole, day 7
[19] = 10 ppm gluteraldehyde + two moles nitrogen compound per mole, day 9
[20] = 10 ppm gluteraldehyde + two moles nitrogen compound per mole, day 13
[21] = 10 ppm gluteraldehyde + two moles nitrogen compound per mole, day 20
[22] = control: nitrogen compound without gluteraldehyde, day 0
[23] = control: nitrogen compound without gluteraldehyde, day 1
[24] = control: nitrogen compound without gluteraldehyde, day 2
[25] = control: nitrogen compound without gluteraldehyde, day 6
[26] = control: nitrogen compound without gluteraldehyde, day 7
[27] = control: nitrogen compound without gluteraldehyde, day 9
[28] = control: nitrogen compound without gluteraldehyde, day 13
[29] = control: nitrogen compound without gluteraldehyde, day 20

## O=CCCCC=O [G, glutaraldehyde]
bacteria
  microbial growth: no growth
In vivo
  LC50 at 96 h: > 100 µg/mL
[1]
  LOEC: 25 mg/L
  NOEC: 13 mg/L
[1]; second experiment, Glutaraldehyde 100 mg/L, MEA 125 mg/L, molar ratio 1:2, mixed 48 hours
  LC50: >100 µg/mL
Alkane degrading culture; ALAD diesel fuel
  effectiveness as biocide: effective at a lower concentration
Alkane degrading culture; FT Diesel + 1 Wt %, Day 0
  microbial growth: −
Alkane degrading culture; FT Diesel + 1 Wt %, Day 1
  microbial growth: −
Alkane degrading culture; FT Diesel + 1 Wt %, Day 5
  microbial growth: −
Alkane degrading culture; FT Diesel + 1 Wt %, Day 7
  microbial growth: −
Alkane degrading culture; FT Diesel + 1 Wt %, Day 8
  microbial growth: −
Alkane degrading culture; FT Diesel + 1 Wt %, Day 19
  microbial growth: −
Alkane degrading culture; FT Diesel + 100 ppm, Day 0
  microbial growth: −
Alkane degrading culture; FT Diesel + 100 ppm, Day 1
  microbial growth: −
Alkane degrading culture; FT Diesel + 100 ppm, Day 5
  microbial growth: −
Alkane degrading culture; FT Diesel + 100 ppm, Day 7
  microbial growth: −
Alkane degrading culture; FT Diesel + 100 ppm, Day 8
  microbial growth: −
Alkane degrading culture; FT Diesel + 100 ppm, Day 19
  microbial growth: +
Alkane degrading culture; Fischer-Tropsch diesel fuel
  effectiveness as biocide: effective at a lower concentration
Alkane degrading culture; [2]
  microbial growth: −
Alkane degrading culture; [3]
  microbial growth: −
Alkane degrading culture; [4]
  microbial growth: −
Alkane degrading culture; [5]
  microbial growth: −
Alkane degrading culture; [6]
  microbial growth: −
Alkane degrading culture; [7]
  microbial growth: −
Alkane degrading culture; [8]
  microbial growth: −
Alkane degrading culture; [9]
  microbial growth: −
Alkane degrading culture; [10]
  microbial growth: −
Alkane degrading culture; [11]
  microbial growth: −
Alkane degrading culture; [12]
  microbial growth: −
Alkane degrading culture; [13]
  microbial growth: −

## CCNCC [diethylamine, Diethylamine]
Bacterial inoculum
  toxicity of the nitrogen-containing compound to microbial growth: not excessively toxic
  neutralizing 10 ppm of gluteraldehyde: effective
Bacterial inoculum; [14]
  microbial growth: −
Bacterial inoculum; [15]
  microbial growth: −
Bacterial inoculum; [16]
  microbial growth: −
Bacterial inoculum; [17]
  microbial growth: +
Bacterial inoculum; [18]
  microbial growth: +
Bacterial inoculum; [19]
  microbial growth: +
Bacterial inoculum; [20]
  microbial growth: +
Bacterial inoculum; [21]
  microbial growth: +
Bacterial inoculum; [22]
  microbial growth: −
Bacterial inoculum; [23]
  microbial growth: −
Bacterial inoculum; [24]
  microbial growth: −
Bacterial inoculum; [25]
  microbial growth: +
Bacterial inoculum; [26]
  microbial growth: +
Bacterial inoculum; [27]
  microbial growth: +
Bacterial inoculum; [28]
  microbial growth: +
Bacterial inoculum; [29]
  microbial growth: +

## Nc1ccccc1 [aniline, Aniline]
Bacterial inoculum
  toxicity of the nitrogen-containing compound to microbial growth: excessively toxic
Bacterial inoculum; [14]
  microbial growth: −
Bacterial inoculum; [15]
  microbial growth: −
Bacterial inoculum; [16]
  microbial growth: −
Bacterial inoculum; [17]
  microbial growth: −
Bacterial inoculum; [18]
  microbial growth: −
Bacterial inoculum; [19]
  microbial growth: −
Bacterial inoculum; [20]
  microbial growth: −
Bacterial inoculum; [21]
  microbial growth: −

## C#CCCCC [H, 1-hexyne]
Microbial growth
  microbial growth: no growth
Alkane degrading culture; FT Diesel + 1 Wt %, Day 0
  microbial growth: −
Alkane degrading culture; FT Diesel + 1 Wt %, Day 1
  microbial growth: −
Alkane degrading culture; FT Diesel + 1 Wt %, Day 5
  microbial growth: −
Alkane degrading culture; FT Diesel + 1 Wt %, Day 7
  microbial growth: −
Alkane degrading culture; FT Diesel + 1 Wt %, Day 8
  microbial growth: −
Alkane degrading culture; FT Diesel + 1 Wt %, Day 19
  microbial growth: −
Alkane degrading culture; FT Diesel + 100 ppm, Day 0
  microbial growth: −
Alkane degrading culture; FT Diesel + 100 ppm, Day 1
  microbial growth: −
Alkane degrading culture; FT Diesel + 100 ppm, Day 5
  microbial growth: +
Alkane degrading culture; FT Diesel + 100 ppm, Day 7
  microbial growth: +
Alkane degrading culture; FT Diesel + 100 ppm, Day 8
  microbial growth: +
Alkane degrading culture; FT Diesel + 100 ppm, Day 19
  microbial growth: +
Alkane degrading culture; [2]
  microbial growth: −
Alkane degrading culture; [3]
  microbial growth: −
Alkane degrading culture; [4]
  microbial growth: −
Alkane degrading culture; [5]
  microbial growth: −
Alkane degrading culture; [6]
  microbial growth: −
Alkane degrading culture; [7]
  microbial growth: −
Alkane degrading culture; [8]
  microbial growth: −
Alkane degrading culture; [9]
  microbial growth: −
Alkane degrading culture; [10]
  microbial growth: +
Alkane degrading culture; [11]
  microbial growth: +
Alkane degrading culture; [12]
  microbial growth: +
Alkane degrading culture; [13]
  microbial growth: +

## OCCNCCO [DEA, Diethanolamine]
Bacterial inoculum
  toxicity of the nitrogen-containing compound to microbial growth: not excessively toxic
  neutralizing 10 ppm of gluteraldehyde: effective
Bacterial inoculum; [14]
  microbial growth: −
Bacterial inoculum; [15]
  microbial growth: +
Bacterial inoculum; [16]
  microbial growth: +
Bacterial inoculum; [17]
  microbial growth: +
Bacterial inoculum; [18]
  microbial growth: +
Bacterial inoculum; [19]
  microbial growth: +
Bacterial inoculum; [20]
  microbial growth: +
Bacterial inoculum; [21]
  microbial growth: +
Bacterial inoculum; [22]
  microbial growth: −
Bacterial inoculum; [23]
  microbial growth: −
Bacterial inoculum; [24]
  microbial growth: −
Bacterial inoculum; [25]
  microbial growth: +
Bacterial inoculum; [26]
  microbial growth: +
Bacterial inoculum; [27]
  microbial growth: +
Bacterial inoculum; [28]
  microbial growth: +
Bacterial inoculum; [29]
  microbial growth: +

## C#CCO [P, Propargyl alcohol]
Alkane degrading culture; FT Diesel + 1 Wt %, Day 0
  microbial growth: −
Alkane degrading culture; FT Diesel + 1 Wt %, Day 1
  microbial growth: −
Alkane degrading culture; FT Diesel + 1 Wt %, Day 5
  microbial growth: −
Alkane degrading culture; FT Diesel + 1 Wt %, Day 7
  microbial growth: −
Alkane degrading culture; FT Diesel + 1 Wt %, Day 8
  microbial growth: −
Alkane degrading culture; FT Diesel + 1 Wt %, Day 19
  microbial growth: −
Alkane degrading culture; FT Diesel + 100 ppm, Day 0
  microbial growth: −
Alkane degrading culture; FT Diesel + 100 ppm, Day 1
  microbial growth: −
Alkane degrading culture; FT Diesel + 100 ppm, Day 5
  microbial growth: −
Alkane degrading culture; FT Diesel + 100 ppm, Day 7
  microbial growth: +
Alkane degrading culture; FT Diesel + 100 ppm, Day 8
  microbial growth: +
Alkane degrading culture; FT Diesel + 100 ppm, Day 19
  microbial growth: +
Alkane degrading culture; [2]
  microbial growth: −
Alkane degrading culture; [3]
  microbial growth: −
Alkane degrading culture; [4]
  microbial growth: −
Alkane degrading culture; [5]
  microbial growth: −
Alkane degrading culture; [6]
  microbial growth: −
Alkane degrading culture; [7]
  microbial growth: −
Alkane degrading culture; [8]
  microbial growth: −
Alkane degrading culture; [9]
  microbial growth: −
Alkane degrading culture; [10]
  colour of growth: Yellow
  microbial growth: +
Alkane degrading culture; [11]
  colour of growth: Yellow
  microbial growth: +
Alkane degrading culture; [12]
  colour of growth: Yellow
  microbial growth: +
Alkane degrading culture; [13]
  colour of growth: Yellow
  microbial growth: +

## NCCO [MEA, Monoethanolamine]
[1]
  LOEC: 1700 mg/L
  NOEC: 1000 mg/L
Bacterial inoculum
  toxicity of the nitrogen-containing compound to microbial growth: not excessively toxic
  neutralizing 10 ppm of gluteraldehyde: effective
Bacterial inoculum; [14]
  microbial growth: −
Bacterial inoculum; [15]
  microbial growth: −
Bacterial inoculum; [16]
  microbial growth: −
Bacterial inoculum; [17]
  microbial growth: +
Bacterial inoculum; [18]
  microbial growth: +
Bacterial inoculum; [19]
  microbial growth: +
Bacterial inoculum; [20]
  microbial growth: +
Bacterial inoculum; [21]
  microbial growth: +
Bacterial inoculum; [22]
  microbial growth: −
Bacterial inoculum; [23]
  microbial growth: −
Bacterial inoculum; [24]
  microbial growth: −
Bacterial inoculum; [25]
  microbial growth: −
Bacterial inoculum; [26]
  microbial growth: +
Bacterial inoculum; [27]
  microbial growth: +
Bacterial inoculum; [28]
  microbial growth: +
Bacterial inoculum; [29]
  microbial growth: +
